biological target: T1, human EP3 receptor (Homo sapiens, UniProt P43115); test: Cellular in vitro assay for determining EP3 receptor activity (human EP3 cell line, sulprostone-stimulated calcium luminescence); assay type: cell-based; details: CHO cells expressing human EP3 and mitochondrial Clytin; antagonist mode, sulprostone at EC50; read-out: EP3 CHO mtCLY ANTAG IC50
T1 construct: expressed in transfected cells; host or cells: CHO K1 (Chinese Hamster Ovary), stably co-transfected with Galpha16 and mitochondrial clytin
T1 sequence (P43115 1-390): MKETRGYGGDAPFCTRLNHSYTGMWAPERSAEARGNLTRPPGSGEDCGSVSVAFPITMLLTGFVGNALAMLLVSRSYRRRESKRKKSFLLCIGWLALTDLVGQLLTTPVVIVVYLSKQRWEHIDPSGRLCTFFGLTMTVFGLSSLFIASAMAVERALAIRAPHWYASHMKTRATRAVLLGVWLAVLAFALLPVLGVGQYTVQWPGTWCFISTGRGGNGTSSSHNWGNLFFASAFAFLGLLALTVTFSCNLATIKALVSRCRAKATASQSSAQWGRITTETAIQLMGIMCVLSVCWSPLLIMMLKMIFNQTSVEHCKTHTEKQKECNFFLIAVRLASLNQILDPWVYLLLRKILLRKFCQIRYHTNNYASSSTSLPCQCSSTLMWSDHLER
Procedure, shortened: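 CHO K1 cells stably expressing human EP3 with Gα16 and mitochondrial Clytin, loaded overnight with coelenterazine. Compounds added 10 min before sulprostone at its EC50; antagonism read immediately as reduced calcium-driven luminescence, quadruplicate points.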

SMILES | IC50
CC[C@H](C)NC(=O)c1nn2cc(-c3ccc(C)c(Cl)c3)[nH]c(=O)c2c1C1CC1 [6-282] | 1.6 nM
Cc1ccc(-c2cn3nc(C(=O)NC4(c5ccc(F)cc5)CCN(C)C4)cc3c(=O)[nH]2)cc1C (racemic) [6-362] | 27 nM
CCn1cc(CNC(=O)c2nn3cc(-c4ccc5ccccc5c4)[nH]c(=O)c3c2Cl)c(C)n1 [6-10] | 1.4 nM
CC(CN1CCOCC1)NC(=O)c1nn2cc(-c3ccc4ccccc4c3)[nH]c(=O)c2c1C(F)(F)F (racemic) [6-522] | 16.9 nM
Cc1cccc2ncc(-c3cn4nc(C(=O)NC(C)c5ccccn5)c(C(C)C)c4c(=O)[nH]3)cc12 (stereo not drawn) [Example 4-54, 3-Isopropyl-6-(5-methyl-3-quinolyl)-4-oxo-N-[1-(2-pyridyl)ethyl]-5H-pyrazolo[1,5-a]pyrazine-2-carboxamide] | 2 nM
Cc1cc(-c2cn3nc(C(=O)N[C@H]4CCN(C5CC5)C4)c(C4CC4)c3c(=O)[nH]2)ccc1Cl (single isomer, unassigned) [6-323] | 3.3 nM
COc1ccc([C@@H](C)NC(=O)c2cc3c(=O)[nH]c(-c4ccc5c(c4)COCC5)cn3n2)cn1 [Example 1-51, 6-(3,4-Dihydro-1H-isochromen-7-yl)-N-[(1R)-1-(6-methoxypyridin-3-yl)ethyl]-4-oxo-4,5-dihydropyrazolo[1,5-a]pyrazine-2-carboxamide] | 4 nM
O=C(NCCc1ccccc1)c1cc2c(=O)[nH]c(-c3ccc4c(c3)OCCO4)cn2n1 [6-21] | 5.35 nM
COc1ccc(C2(NC(=O)c3nn4cc(-c5ccc(C)c(F)c5)[nH]c(=O)c4c3C3CC3)CN(C)C2)cc1 [6-365] | 3.15 nM
Cc1cc(-c2cn3nc(C(=O)NC4(c5ccc(F)cc5)CN(C)C4)c(C(F)(F)F)c3c(=O)[nH]2)ccc1Cl [6-207] | 4.35 nM
CC(C)C(CNC(=O)c1cc2c(=O)[nH]c(-c3ccc4ccccc4c3)cn2n1)n1cccn1 (stereo not drawn) [Example 2-17, N-[3-Methyl-2-(1H-pyrazol-1-yl)butyl]-6-(2-naphthyl)-4-oxo-4,5-dihydropyrazolo[1,5-a]pyrazine-2-carboxamide] | 6.5 nM
Cc1ccc(-c2cn3nc(C(=O)NC4(C)CCC4)c(C(F)(F)F)c3c(=O)[nH]2)cc1F [6-146] | 10 nM
CCn1ccc(C(C)NC(=O)c2nn3c(C)c(-c4ccc5ccccc5c4)[nH]c(=O)c3c2C)n1 (stereo not drawn) [Example 3-4, N-[1-(1-Ethylpyrazol-3-yl)ethyl]-3,7-dimethyl-6-(2-naphthyl)-4-oxo-5H-pyrazolo[1,5-a]pyrazine-2-carboxamide] | 2.6 nM
Cc1cccc2ncc(-c3cn4nc(C(=O)NC(c5ccc(F)cc5)C(C)C)c(C(C)C)c4c(=O)[nH]3)cc12 (stereo not drawn) [Example 4-51, N-[1-(4-Fluorophenyl)-2-methylpropyl]-3-isopropyl-6-(5-methyl-3-quinolyl)-4-oxo-5H-pyrazolo[1,5-a]pyrazine-2-carboxamide] | 4.05 nM
Cc1c(C(=O)NCc2ccnn2C)nn2c(C)c(-c3ccc4ccccc4c3)[nH]c(=O)c12 [Example 3-11, 3,7-Dimethyl-N-[(1-methyl-1H-pyrazol-5-yl)methyl]-6-(naphthalen-2-yl)-4-oxo-4,5-dihydropyrazolo[1,5-a]pyrazine-2-carboxamide] | 2.05 nM
CCn1nccc1CNC(=O)c1nn2cc(-c3cnc4cccc(C)c4c3)[nH]c(=O)c2c1C(C)C [Example 4-16, N-[(1-Ethyl-1H-pyrazol-5-yl)methyl]-6-(5-methylquinolin-3-yl)-4-oxo-3-(propan-2-yl)-4,5-dihydropyrazolo[1,5-a]pyrazine-2-carboxamide] | 0.5 nM
CC[C@@H](C)NC(=O)c1nn2cc(-c3ccc(C)c(Cl)c3)[nH]c(=O)c2c1C1CC1 [6-271] | 0.87 nM
Cc1ccc(-c2cn3nc(C(=O)N[C@H](C)C(C)(C)C)c(C4CC4)c3c(=O)[nH]2)cc1Cl [6-281] | 2.05 nM
Cc1ccc(-c2[nH]c(=O)c3c(C4CC4)c(C(=O)N[C@@H](c4ccc(F)cc4)C(F)(F)CO)nn3c2F)cc1Cl [6-662] | 6.1 nM
Cc1ccc(-c2cn3nc(C(=O)NC4(c5ccc(F)cc5)CN(C)C4)cc3c(=O)[nH]2)cc1Cl [6-123] | 5.63 nM
CC(C)(O)[C@@H](NC(=O)c1nn2cc(-c3ccc(Cl)c(F)c3)[nH]c(=O)c2c1C1CCC1)c1ccc(F)cc1 [6-572] | 2.8 nM
Cc1nc(-c2cn3nc(C(=O)N[C@@H](c4ccc(F)cc4)C(C)(C)O)c(C4CC4)c3c(=O)[nH]2)ccc1Cl [6-590] | 1.2 nM
Cc1ccc(-c2cn3nc(C(=O)NC(C)(C)c4ccc(F)cc4)cc3c(=O)[nH]2)cc1C [6-45] | 2.55 nM
CCN1CCC(NC(=O)c2nn3cc(-c4ccc(Cl)c(C)c4)[nH]c(=O)c3c2C2CC2)(C(F)(F)F)C1 (racemic) [6-292] | 2.05 nM
CC(NC(=O)c1cc2c(=O)[nH]c(-c3ccc4cccnc4c3)cn2n1)c1ccc(F)c(F)c1 (stereo not drawn) [6-28] | 3.9 nM
Cc1c(C(=O)NC2Cc3ccccc3C2)nn2c(C)c(-c3ccc4ccccc4c3)[nH]c(=O)c12 [Example 3-13, N-(2,3-Dihydro-1H-inden-2-yl)-3,7-dimethyl-6-(naphthalen-2-yl)-4-oxo-4,5-dihydropyrazolo[1,5-a]pyrazine-2-carboxamide] | 7.15 nM
O=C(NCc1nc2ccccc2[nH]1)c1cc2c(=O)[nH]c(-c3ccc4ccccc4c3)cn2n1 [Example 2-24, N-(1H-Benzimidazol-2-ylmethyl)-6-(2-naphthyl)-4-oxo-4,5-dihydropyrazolo[1,5-a]pyrazine-2-carboxamide] | 2.45 nM

Next, values leading:

IC50 | SMILES
1.58 nM | O=C(N[C@H](CN1CCOCC1)c1ccc(F)cc1)c1cc2c(=O)[nH]c(-c3ccc4ccccc4c3)cn2n1 [6-67]
7.65 nM | Cc1ccc(-c2[nH]c(=O)c3c(C4CC4)c(C(=O)N[C@@H](c4ccc(F)cc4)C(C)(C)O)nn3c2C#N)cc1C [6-617]
4.45 nM | Cc1cccc2ncc(-c3cn4nc(C(=O)NCc5cccc(CN6CCCC6)c5)c(C(C)C)c4c(=O)[nH]3)cc12 [Example 4-81, 6-(5-Methylquinolin-3-yl)-4-oxo-3-(propan-2-yl)-N-({3-[(pyrrolidin-1-yl)methyl]phenyl}methyl)-4,5-dihydropyrazolo[1,5-a]pyrazine-2-carboxamide]
5.95 nM | Cc1ccc(-c2cn3nc(C(=O)NC[C@@]4(C5CC5)NC(=O)NC4=O)c(C4CC4)c3c(=O)[nH]2)cc1C [6-456]
4.6 nM | CN1CC(NC(=O)c2nn3cc(-c4ccc5ccccc5c4)[nH]c(=O)c3c2C2CC2)(c2ccc(F)cc2)C1 [Example 1-82, 3-Cyclopropyl-N-[3-(4-fluorophenyl)-1-methylazetidin-3-yl]-6-(naphthalen-2-yl)-4-oxo-4,5-dihydropyrazolo[1,5-a]pyrazine-2-carboxamide]
2.4 nM | Cc1cccc2ncc(-c3cn4nc(C(=O)NC(C)c5cccnc5)c(C(C)C)c4c(=O)[nH]3)cc12 (stereo not drawn) [Example 4-70, 3-Isopropyl-6-(5-methyl-3-quinolyl)-4-oxo-N-[1-(3-pyridyl)ethyl]-5H-pyrazolo[1,5-a]pyrazine-2-carboxamide]
5.65 nM | CC(C)(O)[C@@H](NC(=O)c1nn2cc(-c3ccc(C(F)(F)F)c(F)c3F)[nH]c(=O)c2c1C1CC1)c1ccc(F)cc1 [6-602]
0.83 nM | COc1ccc(-c2cn3nc(C(=O)N[C@@H](c4ccc(F)cc4)C(C)(C)O)c(C4CC4)c3c(=O)[nH]2)cc1F [6-587]
4 nM | Cc1ccc([C@H](C)NC(=O)c2nn3cc(-c4cnc5cccc(C)c5c4)[nH]c(=O)c3c2C(C)C)cc1 [Example 4-56, N-[(7S)-1-(4-Methylphenyl)ethyl]-6-(5-methylquinolin-3-yl)-4-oxo-3-(propan-2-yl)-4,5-dihydropyrazolo[1,5-a]pyrazine-2-carboxamide]
2.25 nM | O=C(N[C@@H](CCO)c1ccc(F)cc1)c1cc2c(=O)[nH]c(-c3ccc4ccccc4c3)cn2n1 [Example 1-69, N-[(1S)-1-(4-Fluorophenyl)-3-hydroxypropyl]-6-(naphthalen-2-yl)-4-oxo-4,5-dihydropyrazolo-[1,5-a]pyrazine-2-carboxamide]
0.82 nM | C[C@@H](NC(=O)c1nn2cc(-c3ccc4ccccc4c3)[nH]c(=O)c2c1C(F)(F)F)c1ccc(F)cc1 [Example 1-53, N-[(1R)-1-(4-Fluorophenyl)ethyl]-6-(naphthalen-2-yl)-4-oxo-3-(trifluoromethyl)-4,5-dihydropyrazolo[1,5-a]pyrazine-2-carboxamide]
0.653 nM | CC(C)(O)[C@@H](NC(=O)c1cc2c(=O)[nH]c(-c3ccc4ccccc4c3)cn2n1)c1ccccc1 [Example 1-3, N-[(1S)-2-Hydroxy-2-methyl-1-phenylpropyl]-6-(naphthalen-2-yl)-4-oxo-4,5-dihydropyrazolo-[1,5-a]pyrazine-2-carboxamide]
2.5 nM | CN1CC(NC(=O)c2nn3cc(-c4ccc(Cl)c(Cl)c4)[nH]c(=O)c3c2C2CC2)(c2ccc(F)cc2)C1 [Example 1-170, 3-Cyclopropyl-6-(3,4-dichlorophenyl)-N-[3-(4-fluorophenyl)-1-methylazetidin-3-yl]-4-oxo-4,5-dihydropyrazolo[1,5-a]pyrazine-2-carboxamide]
1.4 nM | COC[C@H](NC(=O)c1nn2cc(-c3ccc(C(F)(F)F)c(C)c3)[nH]c(=O)c2c1C1CC1)c1ccccc1 [6-137]
1.8 nM | Cc1cc(-c2cn3nc(C(=O)N[C@H](C)C4CC4)c(C4CC4)c3c(=O)[nH]2)ccc1Cl [6-335]

— patent publication US20220324865A1 (Bayer Aktiengesellschaft, priority 2018, published 2022)
